Results published in patent publication US6548688B1, “Diammonium ruthenium diethylenethriaminepentaacetate or hydrates thereof and process for the preparation of both” (Chubu Chelest Co., Ltd., priority 1999, dated 2003).
Entries after “also recorded” stand apart in the source; their conditions may differ. Like-named read-outs stand apart in the source and are kept apart here.

Tests used:
Type in all cases: physicochemical
[1] = solubility to water; conditions: 25° C.
[2] = pH of 5% aqueous solution
[3] = stability in the atmospheric condition and in aqueous solution

SMILES: O=C([O-])CN(CCN1CCN2CC(=O)[O][Ru]([O]C(=O)C1)[O]C(=O)C2)CC(=O)[O-] [diammonium ruthenium diethylenetriaminepentaacetate]
- solubility to water [1]: 53 mass %
- solubility ([1]; crystals of Example 1): 53%
- pH of 5% aqueous solution [2]: 5.1
- pH of 5% aqueous solution ([2]; listed as DTPA.Ru(III).(NH4)2.2H2O): 5.10
- precipitation in aqueous solution on change of pH ([3]; acid or alkali added into the aqueous solution to change pH): does not precipitate; also recorded: without precipitating
- storage stability (decomposition or transformation) ([3]; in the atmospheric condition and in the aqueous solution): can be stably preserved; also recorded: not decomposed
